Experimental data reported in US8536202B2, “Triazole-substituted anthranilamides as pesticides” (Bayer Cropscience AG, priority 2010, dated 2013).
Read-outs that look alike come from different tables or passages of the source.

How the values were obtained:
[1] = system: two-spotted spider mite (Tetranychus urticae); experiment: Tetranychus test, OP-resistant (TETRUR spray treatment); assay type: in vivo; conditions: 100 g/ha, after 6 days
Protocol: (§1) Solvents: 78.0 parts by weight of acetone • • 1.5 parts by weight of dimethylformamide
(§2) Emulsifier: 0.5 part by weight of alkylaryl polyglycol ether
An appropriate preparation of active compound is prepared by mixing 1 part by weight of active compound with the stated amounts of solvent and emulsifier and diluting the concentrate with emulsifier-containing water to the desired concentration. Leaf discs of French bean (Phaseolus vulgaris) infested by all stages of the two-spotted spider mite (Tetranychus urticae) are sprayed with a preparation of active compound at the desired concentration.
After 6 days, the activity in % is ascertained. Here, 100% means that all of the spider mites have been killed; 0% means that no spider mites have been killed.

[2] = log P determination by HPLC on reversed-phase columns (EEC Directive 79/831 Annex V.A8); assay type: physicochemical; conditions: pH 2.7
Method in brief: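 log P from reversed-phase LC-MS retention at pH 2.7, 0.1% formic acid water/acetonitrile gradient 10–95% acetonitrile. Calibrated against C3–C16 unbranched alkan-2-ones, interpolating linearly between adjacent alkanones.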

[3] = system: larvae of the mustard beetle (Phaedon cochleariae); experiment: Phaedon test (PHAECO spray treatment); assay type: in vivo; conditions: 168 h, read-out: activity in %
Method in brief: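 Compound dissolved in acetone/dimethylformamide with alkylaryl polyglycol ether emulsifier, then diluted with emulsifier-containing water to test concentration for spray treatment of Phaedon cochleariae larvae. Activity scored after 7 days as % larvae killed (100% = all dead, 0% = none).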

[4] = system: caterpillars of the armyworm (Spodoptera frugiperda); experiment: Spodoptera frugiperda test (SPODFR spray treatment); assay type: in vivo; conditions: 168 h, read-out: activity in %
Method in brief: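 Maize leaf discs sprayed with compound diluted in emulsifier-containing water (acetone/DMF solvent, alkylaryl polyglycol ether emulsifier), dried, then infested with armyworm caterpillars. Kill scored after 7 days as % mortality, 100% = all caterpillars dead, 0% = none.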

[5] = system: green peach aphid (Myzus persicae); experiment: Myzus test (MYZUPE spray treatment), Use Example 4; assay type: in vivo; conditions: 144 h, read-out: activity in %
Method in brief: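 Compound was formulated in acetone/dimethylformamide with alkylaryl polyglycol ether emulsifier and diluted in emulsifier-containing water. It was sprayed onto Chinese cabbage leaf discs infested with all stages of Myzus persicae. Mortality (%) was scored after 6 days, where 100% means all aphids killed.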

adult Musca domestica = experiment: Musca domestica test (MUSCDO); assay type: in vivo; conditions: 48 h, read-out: kill in %
Protocol: (§3) Solvent: dimethyl sulphoxide
An appropriate preparation of active compound is prepared by mixing 10 mg of active compound with 0.5 ml of dimethyl sulphoxide and diluting the concentrate with water to the desired concentration. Vessels containing a sponge treated with the preparation of active compound at the desired concentration are populated with adult Musca domestica.
After 2 days, the kill in % is ascertained. Here, 100% means that all of the flies have been killed; 0% means that no flies have been killed.

Lucilia cuprina larvae = experiment: Lucilia cuprina test (LUCICU); assay type: in vivo; conditions: 48 h, read-out: kill in %
Protocol: as §3
An appropriate preparation of active compound is prepared by mixing 10 mg of active compound with 0.5 ml of dimethyl sulphoxide and diluting the concentrate with water to the desired concentration.
Vessels containing horse meat treated with the preparation of active compound at the desired concentration are populated with approximately 20 Lucilia cuprina larvae.
After 2 days, the kill in % is ascertained. Here, 100% means that all of the larvae have been killed; 0% means that no larvae have been killed.

Boophilus microplus = Boophilus microplus test (BOOPMI injection); assay type: in vivo; conditions: Rhipicephalus microplus, 168 h, 20 μg/animal, after 7 days, read-out: activity in % (no fertile eggs laid)
Protocol: as §3
An appropriate preparation of active compound is prepared by mixing 10 mg of active compound with 0.5 ml of solvent and diluting the concentrate with solvent to the desired concentration. The solution of active compound is injected into the abdomen (Boophilus microplus), and the animals are transferred to dishes and kept in a climatized room. Activity is assessed by deposition of fertile eggs.
After 7 days, the activity in % is assessed. Here, 100% means that none of the ticks has laid fertile eggs.

[6] = system: green peach aphid (Myzus persicae); experiment: Myzus test (MYZUPE spray treatment), Use Example 8, comparison with prior art; assay type: in vivo; conditions: 100 g/ha, 6 d
Protocol: as §1, §2
An appropriate preparation of active compound is prepared by mixing 1 part by weight of active compound with the stated amounts of solvents and emulsifier and diluting the concentrate with emulsifier-containing water to the desired concentration.
Leaf discs of Chinese cabbage (Brassica pekinensis) infested by all stages of the green peach aphid (Myzus persicae) are sprayed with a preparation of active compound at the desired concentration. After the desired time, the activity in % is ascertained. Here, 100% means that all of the aphids have been killed; 0% means that no aphids have been killed.

[7] = HPLC on reversed-phase columns (C 18), EEC Directive 79/831 Annex V.A8, read-out: logP

Row | SMILES | activity in % [1] [%] | chromatographic logP [2] | pest or weed control at 100 g/ha ([3]; 100 g/ha, after 7 days) [%] | pest or weed control at 100 g/ha ([4]; 100 g/ha, after 7 days) [%] | pest or weed control at 100 g/ha ([5]; 100 g/ha, after 6 days) [%] | further results
1 | CNC(=O)c1cc(C#N)cc(C)c1NC(=O)c1cc(Cn2ncc(C(C)(C)C)n2)nn1-c1ncccc1Cl [Example 39] | 90 | 2.89 | 83 | – | – | –
2 | Cc1cc(C#N)cc(C(=O)NC(C)(C)C)c1NC(=O)c1cc(Cn2cc(C3CC3)nn2)nn1-c1ncccc1Cl [Example 50] | 80 | 2.57 | 100 | 83 | 90 | –
3 | Cc1cc(C#N)cc(C(=O)NC2(C3CC3)CC2)c1NC(=O)c1cc(Cn2ncc(C(F)(F)F)n2)nn1-c1ncccc1Cl [Example 281] | – | 3.37 | 100 | 100 | 100 | pest or weed control at 100 ppm (adult Musca domestica): 100%; pest or weed control at 100 ppm (Lucilia cuprina larvae): 100%; pest or weed control at 0.02 mg (Boophilus microplus): 100%
4 | Cc1cc(Cl)cc(C(=O)NC2(C3CC3)CC2)c1NC(=O)c1cc(Cn2ncc(C(F)(F)F)n2)nn1-c1ncccc1Cl [Example 282] | – | 3.78 | 100 | 100 | 80 | pest or weed control at 100 ppm (adult Musca domestica): 80%; pest or weed control at 100 ppm (Lucilia cuprina larvae): 100%; pest or weed control at 0.02 mg (Boophilus microplus): 100%
5 | CSC[C@H](C)NC(=O)c1cc(I)cc(C)c1NC(=O)c1cc(Cn2cc(C(F)(F)C(F)(F)C(F)(F)F)nn2)nn1-c1ncccc1Cl [Example 321] | 90 | – | – | – | – | chromatographic logP [2, 7]: 4.27; pest or weed control at 100 g/ha [4]: 100%; pest or weed control at 100 g/ha [5]: 100%; pest or weed control at 100 g/ha [3]: 100%
6 | Cc1cc(I)cc(C(=O)NC2CC2)c1NC(=O)c1cc(Cn2ncc(C(F)(F)C(F)(F)C(F)(F)F)n2)nn1-c1ncccc1Cl [Example 375] | 90 | – | – | – | – | chromatographic logP [2, 7]: 4.23; pest or weed control at 100 g/ha [4]: 100%; pest or weed control at 100 g/ha [3]: 100%
7 | Cc1cc(Cl)cc(C(N)=O)c1NC(=O)c1cc(Cn2cc(C(F)(F)C(F)(F)F)nn2)nn1-c1ncccc1Cl [drawing 449] | – | – | – | – | – | % Activity [6]: 100 6 d %
8 | Cc1cc(Cl)cc(C(N)=O)c1NC(=O)c1cc(Cn2nnc(C(F)(F)C(F)(F)F)n2)nn1-c1ncccc1Cl [reference compound] | – | – | – | – | – | % Activity [6]: 80 6 d %
